{"source": "patent US20250387419A1", "about": "“PARP INHIBITOR-RESISTANT PATIENT TREATED WITH TH-302” (ASCENTAWITS PHARMACEUTICALS, LTD., priority 2021, published 2025)", "key": {"[1]": {"test_system": "BRCA-mutated Capan-1 cell line", "test": "In vitro cell proliferation inhibition (CTG)", "type": "cell-based, human", "conditions": "for IC50: Homo sapiens, CAPAN-1, Capan-1, 3 h treatment, 72 h", "description": "(§1) The applicant specially studied in vitro cell proliferation inhibition of Capan-1 and BxPc-3 cell lines by the hypoxia-activated anti-cancer prodrugs TH-302 and tirapazamine under normoxia and hypoxia. The Capan-1 cell line was a BRCA-mutated cell line, and the BxPc-3 cell line was a BRCA wild-type (i.e., non-BRCA-mutated) cell line. This experiment was intended to verify the difference of the hypoxia-activated anti-cancer prodrugs, TH-302 and tirapazamine, in sensitivity to BRCA mutations.\n(§2) • 1) Capan-1/BxPc-3 cell suspensions were added to two types of 24-well plates, 495 μL each well. Density of the cells was 6×10^4 per well. 24-well plates with glass inserts were used in hypoxic tests, and ordinary plastic 24-well plates were used in normoxic tests. • 2) The cells were incubated overnight in an incubator at 37° C. in 5% CO2. • 3) Compound Processing\n(§3) A hypoxia workstation was tuned to create a hypoxic environment (O2<0.01%), and an oxygen indicator was used to confirm the hypoxia in the workstation.\n(§4) 24 hours after cell seeding, the 24-well plates with glass inserts were transferred into the hypoxia workstation.\n(§5) The 24-well plates were placed on vortex shakers, uncovered and shaken to allow air exchange for 5 minutes.\n(§6) To each well in a monotherapy group, a 100× test compound solution was added.\n(§7) 24 hours after cell seeding, 5 μL of the 100× test compound solution was added to each well. Three replicate wells were set up for each test group."}, "[2]": {"test_system": "BRCA wild-type BxPc-3 cell line", "test": "In vitro cell proliferation inhibition (CTG)", "type": "cell-based", "conditions": "for IC50: Homo sapiens, BXPC-3, BxPc-3, 3 h treatment, 72 h", "description": "as §1, §2, §3, §4, §5, §6, §7"}}, "data": [{"smiles": "Nc1n[n+]([O-])c2ccccc2[n+]1[O-]", "note": "[tirapazamine, reference compound]", "values": [{"measurement": "Ratio (21% O2/0.01% O2)", "setting": "[1]; Capan-1", "value": ">68.82"}, {"measurement": "IC50", "setting": "[1]; 21% O2", "value": "> 2000", "unit": "µM"}, {"measurement": "IC50", "setting": "[1]; <0.01% O2", "value": 29.1, "unit": "µM"}, {"measurement": "Ratio (21% O2/0.01% O2)", "setting": "[2]; BxPc-3", "value": ">60.19"}, {"measurement": "IC50", "setting": "[2]; 21% O2", "value": "> 2000", "unit": "µM"}, {"measurement": "IC50", "setting": "[2]; <0.01% O2", "value": 33.2, "unit": "µM"}]}]}
